Experimental findings from ChEMBL document CHEMBL5291721, “A preclinical secondary pharmacology resource illuminates target-adverse drug reaction associations of marketed drugs” (Nat Commun, 2023) are described below.

For assay [1], the target named is T1, Adenosine receptor A3 (Homo sapiens, UniProt P0DMS8).
T1 sequence (P0DMS8 whole entry): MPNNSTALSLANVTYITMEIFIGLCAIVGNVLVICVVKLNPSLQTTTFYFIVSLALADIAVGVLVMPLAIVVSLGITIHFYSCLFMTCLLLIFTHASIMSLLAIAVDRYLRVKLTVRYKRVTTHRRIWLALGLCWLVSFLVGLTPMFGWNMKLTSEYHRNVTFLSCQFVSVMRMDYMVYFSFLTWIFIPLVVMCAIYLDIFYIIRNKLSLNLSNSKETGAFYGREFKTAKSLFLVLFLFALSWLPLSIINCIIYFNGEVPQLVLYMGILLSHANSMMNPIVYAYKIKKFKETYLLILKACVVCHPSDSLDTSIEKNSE

In assay [2] the target is T2, Alpha-2A adrenergic receptor (Homo sapiens, UniProt P08913).
T2 sequence (P08913 whole entry): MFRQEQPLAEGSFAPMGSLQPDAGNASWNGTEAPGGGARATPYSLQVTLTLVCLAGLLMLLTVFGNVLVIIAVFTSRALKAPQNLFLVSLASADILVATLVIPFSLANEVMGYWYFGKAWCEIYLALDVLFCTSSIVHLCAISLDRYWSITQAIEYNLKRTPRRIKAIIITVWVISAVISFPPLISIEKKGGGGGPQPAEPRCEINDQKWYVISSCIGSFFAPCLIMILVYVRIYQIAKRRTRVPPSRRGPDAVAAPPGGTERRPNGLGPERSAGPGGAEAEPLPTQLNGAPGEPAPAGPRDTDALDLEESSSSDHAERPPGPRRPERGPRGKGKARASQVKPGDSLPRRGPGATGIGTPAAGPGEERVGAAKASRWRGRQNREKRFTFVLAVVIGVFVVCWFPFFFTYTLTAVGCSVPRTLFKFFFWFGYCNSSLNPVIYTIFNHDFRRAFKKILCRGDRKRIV
Format: functional, cell-based.

Assay [3] concerns the target T3, Type-1 angiotensin II receptor (Homo sapiens, UniProt P30556).
T3 sequence (P30556 whole entry): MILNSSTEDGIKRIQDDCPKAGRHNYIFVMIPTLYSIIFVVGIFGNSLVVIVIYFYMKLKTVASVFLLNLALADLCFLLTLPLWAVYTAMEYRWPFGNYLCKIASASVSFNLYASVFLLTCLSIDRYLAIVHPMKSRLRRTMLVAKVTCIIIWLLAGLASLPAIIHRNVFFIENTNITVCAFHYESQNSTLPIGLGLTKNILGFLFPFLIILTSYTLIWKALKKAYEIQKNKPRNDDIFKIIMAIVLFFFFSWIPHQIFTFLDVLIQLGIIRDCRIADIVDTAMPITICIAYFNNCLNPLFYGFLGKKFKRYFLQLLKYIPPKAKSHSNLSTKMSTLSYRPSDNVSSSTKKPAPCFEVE

For assay [4], the target named is T4, B2 bradykinin receptor (Homo sapiens, UniProt P30411).
T4 sequence (P30411 whole entry): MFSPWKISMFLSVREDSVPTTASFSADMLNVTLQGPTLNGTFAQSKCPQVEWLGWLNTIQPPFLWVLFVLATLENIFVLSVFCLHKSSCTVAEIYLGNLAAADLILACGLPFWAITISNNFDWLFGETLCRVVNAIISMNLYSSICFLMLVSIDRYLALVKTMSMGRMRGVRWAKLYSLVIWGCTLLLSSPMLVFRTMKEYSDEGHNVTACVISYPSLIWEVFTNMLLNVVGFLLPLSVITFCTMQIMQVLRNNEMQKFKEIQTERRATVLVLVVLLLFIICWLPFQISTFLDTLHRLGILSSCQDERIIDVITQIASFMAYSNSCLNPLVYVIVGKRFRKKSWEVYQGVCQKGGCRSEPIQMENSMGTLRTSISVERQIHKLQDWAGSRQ

The target of assay [5] is T5, Muscarinic acetylcholine receptor M2 (Homo sapiens, UniProt P08172).
T5 sequence (P08172 whole entry): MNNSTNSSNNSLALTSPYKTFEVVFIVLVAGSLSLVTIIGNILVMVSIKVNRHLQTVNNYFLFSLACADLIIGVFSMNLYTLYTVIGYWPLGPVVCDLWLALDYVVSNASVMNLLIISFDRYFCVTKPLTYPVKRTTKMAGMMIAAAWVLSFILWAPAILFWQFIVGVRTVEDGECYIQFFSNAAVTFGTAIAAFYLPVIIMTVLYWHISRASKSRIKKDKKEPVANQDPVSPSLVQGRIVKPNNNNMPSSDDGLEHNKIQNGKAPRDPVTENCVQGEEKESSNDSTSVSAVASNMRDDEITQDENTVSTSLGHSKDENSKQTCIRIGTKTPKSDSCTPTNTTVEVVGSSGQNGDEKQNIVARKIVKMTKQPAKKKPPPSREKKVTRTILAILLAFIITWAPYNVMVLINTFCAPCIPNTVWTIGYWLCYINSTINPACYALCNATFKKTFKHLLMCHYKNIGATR
Format: functional, cell-based.

The target of assay [6] is Histamine H2 receptor (Homo sapiens, UniProt P25021). Format: functional, cell-based.
Assay [7] has as its target Motilin receptor (Homo sapiens, UniProt O43193).
In assay [8] the target is T6, Glucocorticoid receptor (Homo sapiens, UniProt P04150).
T6 sequence (P04150 whole entry): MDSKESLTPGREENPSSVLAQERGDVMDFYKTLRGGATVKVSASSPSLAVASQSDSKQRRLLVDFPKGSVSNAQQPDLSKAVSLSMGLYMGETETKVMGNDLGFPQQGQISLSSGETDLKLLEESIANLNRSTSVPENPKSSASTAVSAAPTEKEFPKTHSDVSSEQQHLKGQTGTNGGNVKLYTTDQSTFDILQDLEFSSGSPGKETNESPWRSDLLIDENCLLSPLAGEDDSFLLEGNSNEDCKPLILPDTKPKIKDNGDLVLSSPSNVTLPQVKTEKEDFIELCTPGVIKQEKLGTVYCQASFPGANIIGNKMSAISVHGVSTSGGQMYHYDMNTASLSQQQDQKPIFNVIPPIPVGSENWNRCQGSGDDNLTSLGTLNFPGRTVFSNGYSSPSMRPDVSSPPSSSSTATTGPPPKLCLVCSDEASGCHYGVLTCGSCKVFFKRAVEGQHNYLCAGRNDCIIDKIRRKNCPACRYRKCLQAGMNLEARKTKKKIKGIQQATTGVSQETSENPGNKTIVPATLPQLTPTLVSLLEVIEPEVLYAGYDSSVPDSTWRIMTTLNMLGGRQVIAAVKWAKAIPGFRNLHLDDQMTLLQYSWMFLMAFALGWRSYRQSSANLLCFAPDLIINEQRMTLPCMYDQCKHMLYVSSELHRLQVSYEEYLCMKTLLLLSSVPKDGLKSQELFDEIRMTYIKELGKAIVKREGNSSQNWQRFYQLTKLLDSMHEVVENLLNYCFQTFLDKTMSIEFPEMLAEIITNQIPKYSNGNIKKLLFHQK

For assay [9], the target named is Kappa-type opioid receptor (Homo sapiens, UniProt P41145).
Also: assay procedure not described here.

Sequence of Histamine H2 receptor (P25021 whole entry): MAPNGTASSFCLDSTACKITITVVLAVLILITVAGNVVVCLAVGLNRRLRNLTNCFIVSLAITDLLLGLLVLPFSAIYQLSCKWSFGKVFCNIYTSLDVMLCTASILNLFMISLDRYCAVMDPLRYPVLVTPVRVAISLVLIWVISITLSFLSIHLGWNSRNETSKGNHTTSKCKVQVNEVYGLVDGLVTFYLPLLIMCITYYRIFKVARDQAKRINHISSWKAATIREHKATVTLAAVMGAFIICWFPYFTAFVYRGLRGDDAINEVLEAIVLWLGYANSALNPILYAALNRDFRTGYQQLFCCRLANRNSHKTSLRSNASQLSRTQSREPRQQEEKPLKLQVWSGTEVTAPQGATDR
Sequence of Kappa-type opioid receptor (P41145 whole entry): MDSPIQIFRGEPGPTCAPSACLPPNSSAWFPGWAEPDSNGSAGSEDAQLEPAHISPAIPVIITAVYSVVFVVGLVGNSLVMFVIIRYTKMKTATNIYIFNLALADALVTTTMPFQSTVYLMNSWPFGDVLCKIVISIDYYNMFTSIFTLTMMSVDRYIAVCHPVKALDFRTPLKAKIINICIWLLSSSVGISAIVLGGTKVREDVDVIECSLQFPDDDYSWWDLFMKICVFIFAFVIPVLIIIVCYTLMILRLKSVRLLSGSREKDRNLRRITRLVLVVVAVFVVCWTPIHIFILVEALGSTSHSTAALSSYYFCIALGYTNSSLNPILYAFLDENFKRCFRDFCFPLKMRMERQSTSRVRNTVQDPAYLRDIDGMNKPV
Sequence of Motilin receptor (O43193 whole entry): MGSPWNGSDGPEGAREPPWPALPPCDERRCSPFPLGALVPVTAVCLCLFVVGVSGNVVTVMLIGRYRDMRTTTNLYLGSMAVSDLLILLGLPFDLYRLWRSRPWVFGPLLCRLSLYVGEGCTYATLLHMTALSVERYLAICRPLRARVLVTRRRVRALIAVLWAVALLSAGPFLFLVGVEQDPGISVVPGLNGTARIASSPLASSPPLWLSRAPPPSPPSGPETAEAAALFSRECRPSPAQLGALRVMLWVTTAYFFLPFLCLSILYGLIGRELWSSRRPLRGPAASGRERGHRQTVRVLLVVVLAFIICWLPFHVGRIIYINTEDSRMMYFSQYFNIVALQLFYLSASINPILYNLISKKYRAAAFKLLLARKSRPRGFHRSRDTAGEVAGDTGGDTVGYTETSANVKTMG

A word on the AC50: it is the concentration at which the activity in the assay is half-maximal. Low readings indicate activity at low concentration, high ones activity only at high concentration. On to `O=C(O)CCNC(=O)c1ccccc1` [BETAMIPRON], for which the AC50 in assay [1], in [2], in assay [3], in assay [4], in assay [5] and in assay [6] was above 30 µM each time. In addition, the AC50 in assay [7], in assay [8] and in assay [9] was above 30 µM each time.
As to `O=C1CN=C(c2ccccn2)c2cc(Br)ccc2N1` [BROMAZEPAM], the AC50 in assay [1], in assay [2], in assay [3], in [4], in assay [5] and in [6] was above 10 µM throughout. Besides, the AC50 in [7], in assay [8] and in [9] was above 10 µM in each case.
On to `Oc1ccc2c(c1)[C@@]13CCCC[C@@]1(O)[C@@H](C2)N(CC1CCC1)CC3` [BUTORPHANOL], for which the AC50 in assay [1], in assay [2], in assay [3], in assay [4], in assay [5] and in assay [6] was above 30 µM each time. Besides, the concentration at half-maximal activity (AC50) was above 30 µM in [7], above 30 µM in assay [8] and 0.025 µM in assay [9].
In the case of `C=C1/C(=C\C=C2/CCC[C@]3(C)[C@@H]([C@H](C)/C=C/[C@@H](O)C4CC4)CC[C@@H]23)C[C@@H](O)C[C@@H]1O` [CALCIPOTRIENE], the AC50 in [1] was 12 µM; in [2], above 30 µM; in assay [3], above 30 µM; in assay [4], above 30 µM; in assay [5], above 30 µM; in assay [6], above 30 µM. Moreover, the AC50 in assay [7], in assay [8] and in assay [9] was above 30 µM in each case.
Consider `CCN(CC)C(=O)Nc1ccc(OCC(O)CNC(C)(C)C)c(C(C)=O)c1` (stereo not drawn) [CELIPROLOL], for which the AC50 in [1], in [2], in assay [3], in assay [4], in assay [5] and in assay [6] was above 30 µM in each case. For the same compound, the AC50 in [7], in [8] and in assay [9] was above 30 µM each time.
Consider `CCCCCCCCCCCCCCCCCCCCCC(=O)Nc1ccn([C@@H]2O[C@H](CO)[C@@H](O)[C@@H]2O)c(=O)n1` [ENOCITABINE], for which the AC50 in [1], in assay [2], in assay [3], in [4], in assay [5] and in [6] was above 30 µM in each case. In addition, the AC50 in assay [7], in assay [8] and in [9] was above 30 µM throughout.
Turning to `CCN(CC)CCN1C(=O)CN=C(c2ccccc2F)c2cc(Cl)ccc21` [FLURAZEPAM], the AC50 is above 30 µM in [1]; above 10 µM in assay [2]; above 30 µM in [3]; above 30 µM in assay [4]; above 10 µM in assay [5]; above 30 µM in [6]. The AC50 was above 10 µM in assay [7], above 30 µM in assay [8] and 0.21 µM in assay [9].
For the compound `CCCCCC(=O)O[C@]1(C(C)=O)CC[C@H]2[C@@H]3CCC4=CC(=O)CC[C@]4(C)[C@H]3CC[C@@]21C` [HYDROXYPROGESTERONE CAPROATE], the AC50 in assay [1] was 18.4 µM; in [2] it was above 30 µM; in assay [3], above 30 µM; in assay [4] it was above 9.99 µM; in assay [5], above 30 µM; in assay [6], above 30 µM. Moreover, the concentration at half-maximal activity (AC50) in [7] is 28.1 µM; in assay [8] it was 0.007 µM; in assay [9], above 30 µM.
As for `Nc1cc(-c2ccncc2)c[nH]c1=O` [INAMRINONE], the AC50 in [1] was above 30 µM; in [2], above 10 µM; in assay [3], above 30 µM; in assay [4] it was above 30 µM; in assay [5], above 10 µM; in assay [6], above 10 µM. Further, the concentration at half-maximal activity (AC50) is above 10 µM in [7], above 30 µM in assay [8] and above 10 µM in assay [9].
For `O=C(O)c1ccccc1Nc1cc(Cl)ccc1C(=O)O` [LOBENZARIT], the AC50 in [1], in assay [2], in [3], in assay [4], in assay [5] and in assay [6] was above 30 µM in each case. Further, the AC50 in assay [7], in [8] and in [9] was above 30 µM throughout.
Consider `CCOC(=O)O[C@]1(C(=O)OCCl)CC[C@H]2[C@@H]3CCC4=CC(=O)C=C[C@]4(C)[C@H]3[C@@H](O)C[C@@]21C` [LOTEPREDNOL ETABONATE], for which the AC50 in assay [1], in assay [2], in assay [3], in [4], in [5] and in assay [6] was above 30 µM in each case. Besides, the AC50 in assay [7] is above 30 µM; in assay [8] it was 0.0056 µM; in assay [9], above 30 µM.
`COc1cc2c(cc1OC)C(CCc1ccc(Cl)cc1)N(C)CC2` (stereo not drawn) [METHOPHOLINE]: the AC50 in [1] was above 30 µM; in [2], above 10 µM; in assay [3] it was above 30 µM; in assay [4] it was above 30 µM; in assay [5], above 10 µM; in [6] it was above 10 µM. Moreover, the results for the AC50 in [7], in assay [8] and in assay [9] were above 30 µM, above 30 µM and 1.2 µM, respectively.
